Source: patent US5849755A, “3-amidochromanylsulfonyl(thio)ureas, processes for their preparation, their use, and pharmaceutical preparations comprising them” (Hoechst Aktiengesellschaft, priority 1996, dated 1998)

Legend:
[1] = test system: papillary muscle of the guinea pig; test: Test 1: Duration of the action potential of the papillary muscle of the guinea pig (APD95, shortened by HOE 234); assay type: cell-based; conditions: HOE 234 1 μg/ml in bath, 30 minutes after addition, mean of n = 3, control with HOE 234 alone <40
Description: Test 1: Duration of the action potential of the papillary muscle of the guinea pig
ATP deficiency states such as are observed in the cardiac muscle cell during ischemia lead to a shortening of the duration of the action potential. They are regarded as one of the causes of so-called "re-entry arrhythmias," which can cause sudden cardiac death. The opening of ATP-sensitive potassium channels as a result of the fall in ATP is regarded as the cause of this.
A standard microelectrode technique was employed to measure the action potential. For this, guinea pigs of both sexes were sacrificed by a blow to the head, the hearts were removed and the papillary muscles were separated out and suspended in an organ bath. The organ bath was flushed with Ringer's solution (0.9% NaCl, 0.048% KCl, 0.024% CaCl2, 0.02% NaHCO3 and 0.1% glucose) and gassed with a mixture of 95% oxygen and 5% carbon dioxide at a temperature of 36° C. The muscle was stimulated via an electrode with rectangular pulses of 1 V and 1 ms duration and a frequency of 2 Hz. The action potential was derived through a glass microelectrode which was inserted intracellularly and filled with 3M KCl solution, and recorded. The substances to be tested were added to the Ringer's solution in a concentration of 2×10^-6 mol per liter or 2×10^-5 mol per liter. The action potential was amplified with a Hugo Sachs amplifier and shown on an oscilloscope. The duration of the action potential in milliseconds (ms) was determined at a degree of repolarization of 95% (APD95). Shortenings of the action potential were induced by addition of a solution of the potassium channel opener HOE 234 (Rilmakalim) (W. Linz, E. Klaus, U. Albus, R. H. A. Becker, D. Mania, H. C. Englert, B. A. Scholkens, Arzneimittelforschung/Drug Research, Volume 42 (II), 1992, 1180-1185), a concentration of HOE 234 in the bath solution of 1 μg/ml being established. The test substances were added to the bath solution as stock solutions in propanediol. The values stated are based on measurements 30 minutes after the addition. As a control, the APD95 value was determined in the presence of HOE 234 and in the absence of the test substance.
The measurement values (mean values from n experiments) are followed by the corresponding blank values in parentheses. The blank values are the APD95 values which were measured at the start of the experiment without HOE 234 and test substance in the Ringer's solution. The values obtained show the normalizing effect of the compounds according to the invention on a shortened duration of the action potential.

RINm5F cells = test: Test 2: Membrane potential on isolated β cells (RINm5F, whole cell patch clamp); assay type: cell-based; conditions: diazoxide 100 μmol/l in bath, 34°±1° C.
Description: Test 2: Membrane potential on isolated β cells The action mechanism of hypoglycemic sulfonylureas is understood in principle. The β cells of the pancreas are the target organ of sulfonylureas, where they bring about a release of the hypoglycemic hormone insulin by influencing the electrical potential of the cell membrane. A hypoglycemic sulfonylurea, for example glibenclamide, has the effect of depolarizing the cell membrane, which leads to an increased inflow of calcium ions and, as a consequence thereof, to the release of insulin. The extent AU of this depolarization of the cell membrane caused by the substances according to the invention was determined on insulin-secreting RINm5F cells, a pancreas tumor cell line. The activity of a compound in this model predicts the extent of the hypoglycemic potential of this compound. Cell cultures of RINm5F cells: RINm5F cells were cultured at 37° C. in RPMI 1640 culture medium (Flow) to which 11 mM glucose, 10% (volume/volume) fetal calf serum, 2 mM glutamine and 50 μg/ml of gentamycin were added. The cells were sown on Petri dishes every 2 to 3 days and kept at a temperature of 37° C. in a moistened atmosphere of […] and 5% CO2. For the investigations, the cells were isolated by incubation (about 3 minutes) in a Ca^2+ -free medium which comprised 0.25% trypsin. Measurement method: Isolated RINm5F cells were introduced into a Plexiglas chamber on an inverse microscope which was equipped with a differential interference contrast lens. Under visual control (400-fold magnification),a fire-polished micropipette with an opening diameter of about 1 μm was placed on the cell with the aid of a micromanipulator. By applying a slight reduced pressure to the inside of the patch pipette, a high electrical seal was initially established between the glass and the cell membrane. By increasing the reduced pressure, the membrane patch under the […] pipette was then broken open. In this whole cell configuration,the cell potential was recorded with the aid of a patch clamp amplifier (L/M EPC 7, List, Darmstadt) and the whole cell current was measured by applying a voltage ramp. […] Stock solutions (concentration 100 mmol/l) of the test substances in dimethyl sulfoxide (DMSO) and corresponding dilutions in NaCl solution were prepared. DMSO alone had no effect on the cell potential. To stabilize the cell potential, diazoxide (100 μmol/l), an opener of ATP-sensitive K^+ channels, was added to the bath solution in all experiments. All experiments were carried out at 34°±1° C. The following values ΔU (changes in the cell potentials caused by the addition of the test substances) were measured. The control values in parentheses are the cell potentials U before the addition of the test substances. For comparison the values obtained in this test with glibenclamide, a typical hypoglycemic benzenesulfonylurea, are given.

Compound | APD95 -HOE 234 ([1]; test substance 20 μmol/l) [ms] | ΔU (mV), change in the cell potential caused by the addition of the test substance (RINm5F cells; 1 μmol/l) [mV] | ΔU (mV), change in the cell potential caused by the addition of the test substance (RINm5F cells; 10 μmol/l) [mV] | APD95 -HOE 234 ([1]; test substance 2 μmol/l) [ms]
CNC(=O)NS(=O)(=O)c1cc2c(cc1OC)OCC(NC(=O)c1cc(Cl)ccc1OC)C2 (stereo not shown) [Example 1, 3-(5-Chloro-2-methoxybenzamido)-6-(methylaminocarbonylaminosulfonyl)-7-methoxychroman] | 157 ± 36 | 6 | 24 | 
CCCNC(=O)NS(=O)(=O)c1cc2c(cc1OC)OCC(NC(=O)c1cc(Cl)ccc1OC)C2 (stereo not shown) [Example 3, 3-(5-Chloro-2-methoxybenzamido)-6-(n-propylamino-carbonylaminosulfonyl)-7-methoxychroman] | 134 ± 9 | 18 | 23 | 
CNC(=S)NS(=O)(=O)c1cc2c(cc1OC)OCC(NC(=O)c1cc(Cl)ccc1OC)C2 (stereo not shown) [Example 6] |  | 3 |  | 145 ± 19.1
CCNC(=S)NS(=O)(=O)c1cc2c(cc1OC)OCC(NC(=O)c1cc(Cl)ccc1OC)C2 (stereo not shown) [Example 7, 3-(5-Chloro-2-methoxybenzamido)-6-(ethylaminothiocarbonylaminosulfonyl)-7-methoxychroman] |  | 29 |  | 130 ± 28.1
COc1ccc(F)cc1C(=O)NC1Cc2cc(S(=O)(=O)NC(=S)NC(C)C)c(OC)cc2OC1(C)C (stereo not shown) [Example 21, 3-(5-Fluoro-2-methoxybenzamido)-2,2-dimethyl-6-(isopropylaminothiocarbonylaminosulfonyl)-7-methoxychroman] |  |  |  | 67 ± 10
COc1ccc(Cl)cc1C(=O)NCCc1ccc(S(=O)(=O)NC(=O)NC2CCCCC2)cc1 [Glibenclamide, glibenclamide, reference compound] |  | 47 | 46 | 
